Results: article PMC7832085 (Journal of medicinal chemistry, 2016)

Key:
recombinant human TDP2 = molecular target: T1, recombinant human TDP2 (Homo sapiens, UniProt O95551); assay: Recombinant TDP2 assay; type: biochemical; details: for Inhibition of recombinant TDP2 (in words): recombinant human TDP2, concentrations up to 111 μM
T1 sequence (O95551 1-362): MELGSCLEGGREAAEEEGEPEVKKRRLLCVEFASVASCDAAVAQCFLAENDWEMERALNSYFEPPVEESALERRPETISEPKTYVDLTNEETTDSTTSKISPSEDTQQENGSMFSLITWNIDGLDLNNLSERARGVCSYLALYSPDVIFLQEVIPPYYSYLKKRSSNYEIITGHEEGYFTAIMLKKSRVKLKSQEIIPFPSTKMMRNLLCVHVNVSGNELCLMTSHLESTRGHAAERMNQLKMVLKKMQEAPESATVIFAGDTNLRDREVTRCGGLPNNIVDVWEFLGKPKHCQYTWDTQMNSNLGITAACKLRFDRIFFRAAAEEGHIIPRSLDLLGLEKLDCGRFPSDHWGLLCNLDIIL

hTDP2 DT40 cells = type: cell-based; details: different concentrations of EPT
TDP1 = TDP1 (Homo sapiens, UniProt Q9NUW8); assay: TDP1 counter assay; type: biochemical; details: highest testing concentration 111 μM
Chain of TDP1 (Q9NUW8 whole entry): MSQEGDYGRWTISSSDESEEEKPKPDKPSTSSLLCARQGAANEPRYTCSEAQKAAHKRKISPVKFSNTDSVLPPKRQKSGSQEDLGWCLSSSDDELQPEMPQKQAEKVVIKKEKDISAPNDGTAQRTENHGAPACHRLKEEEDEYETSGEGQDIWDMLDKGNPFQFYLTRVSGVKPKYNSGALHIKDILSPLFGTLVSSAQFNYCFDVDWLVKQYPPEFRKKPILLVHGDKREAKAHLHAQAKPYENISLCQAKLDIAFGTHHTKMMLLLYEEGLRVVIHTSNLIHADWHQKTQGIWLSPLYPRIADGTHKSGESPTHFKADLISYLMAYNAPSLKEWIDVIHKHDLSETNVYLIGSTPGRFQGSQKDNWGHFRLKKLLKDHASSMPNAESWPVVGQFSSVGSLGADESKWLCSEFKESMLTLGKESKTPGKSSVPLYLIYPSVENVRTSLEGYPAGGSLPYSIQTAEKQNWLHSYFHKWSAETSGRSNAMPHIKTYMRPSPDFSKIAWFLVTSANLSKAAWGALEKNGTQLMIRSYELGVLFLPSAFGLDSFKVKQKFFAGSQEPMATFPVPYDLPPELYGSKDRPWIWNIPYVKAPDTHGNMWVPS

[1] = molecular target: T2, human TDP2 (hTDP2) whole cell extracts (Homo sapiens, UniProt O95551); assay: Whole cell extract; type: biochemical
T2 sequence (O95551 1-362): T1 sequence (O95551 1-362)

| Structure (SMILES) | Inhibition of recombinant TDP2 (in words) (recombinant human TDP2) | Synergy in combination with ETP (hTDP2 DT40 cells) | other results |
| --- | --- | --- | --- |
| O=C1Cc2c(Br)cccc2C(=O)N1 [Compound 34, 5-Bromoisoquinoline-1,3(2H,4H)-dione] | inactive |  |  |
| O=C1Cc2cc(I)ccc2C(=O)N1 [Compound 36, 6-Iodoisoquinoline-1,3(2H,4H)-dione] |  | not observed |  |
| O=C1Cc2ccc(C(=O)O)cc2C(=O)N1 [Compound 40, 1,3-Dioxo-1,2,3,4-tetrahydroisoquinoline-7-carboxylic Acid] |  | not observed |  |
| O=C1Cc2cc(-c3ccco3)ccc2C(=O)N1 [Compound 43, 6-(Furan-2-yl)isoquinoline-1,3 (2H,4H)-dione] |  | not observed | Inhibition of TDP1 (counter assay) (TDP1): no inhibition; IC50 (recombinant human TDP2): 8.5 µM |
| O=C1Cc2c(cccc2-c2ccco2)C(=O)N1 [Compound 45, 5-(Furan-2-yl)isoquinoline-1,3(2H,4H)-dione] | inactive |  |  |
| O=C1Cc2cc(-c3ccco3)ccc2C(=O)N1O [Compound 46, 6-(Furan-2-yl)-2-hydroxyisoquinoline-1,3(2H,4H)-dione] | inactive |  | Inhibition of endogenous TDP2 in WCE (in words) [1]: inactive |
| O=C1Cc2cccc(-c3cccc(O)c3)c2C(=O)N1 [Compound 53, 8-(3-Hydroxyphenyl)isoquinoline-1,3(2H,4H)-dione] | substantially reduced inhibitory activity |  |  |
| O=C1Cc2cccc(-c3cccc([N+](=O)[O-])c3)c2C(=O)N1 [Compound 57, 8-(3-Nitrophenyl)isoquinoline-1,3(2H,4H)-dione] | substantially reduced inhibitory activity |  |  |
| O=C1Cc2c(cccc2-c2cccc([N+](=O)[O-])c2)C(=O)N1 [Compound 58, 5-(3-Nitrophenyl)isoquinoline-1,3(2H,4H)-dione] | inactive |  |  |
| O=C1Cc2cc(-c3nc4ccccc4s3)ccc2C(=O)N1 [Compound 84] |  | not observed |  |
